Literature values, collected in US20060233842A1, “Microemulsion composition for oral administration of biphenyldimethyldicarboxylate” (priority 2002, published 2006).
Like-named read-outs stand apart in the source and are kept apart here.

Row | Structure (SMILES) | LD50 for acute oral toxicity (Gattefosse product profile) | LD50 for acute oral toxicity
1 | CCOCCOCCO [transcutol, diethyleneglycol monoethylether] | 7.95 ml (specific gravity, 0.989)/kg | 
2 | CC(=O)OCC(COC(C)=O)OC(C)=O [triacetine] |  | 1.1 g/kg
